ChEMBL document CHEMBL3259776, “Discovery and optimization of indazoles as potent and selective interleukin-2 inducible T cell kinase (ITK) inhibitors” (Bioorg Med Chem Lett, 2014)

What was measured:
[1] = AUC in rat at 1 mg/kg, iv; type: ADME, organism-based; set-up: dose 1 mg/kg, route intravenous; settings: plasma
[2] = Half life in rat at 1 mg/kg, iv; type: ADME, organism-based; set-up: dose 1 mg/kg, route intravenous; settings: in vivo
[3] = Clearance in rat at 1 mg/kg, iv; type: ADME, organism-based; set-up: dose 1 mg/kg, route intravenous; settings: in vivo
[4] = Oral bioavailability in rat at 5 mg/kg; type: ADME, organism-based; settings: in vivo
[5] = target: T1, Tyrosine-protein kinase ITK/TSK (Homo sapiens, UniProt Q08881)
T1 sequence (Q08881 whole entry): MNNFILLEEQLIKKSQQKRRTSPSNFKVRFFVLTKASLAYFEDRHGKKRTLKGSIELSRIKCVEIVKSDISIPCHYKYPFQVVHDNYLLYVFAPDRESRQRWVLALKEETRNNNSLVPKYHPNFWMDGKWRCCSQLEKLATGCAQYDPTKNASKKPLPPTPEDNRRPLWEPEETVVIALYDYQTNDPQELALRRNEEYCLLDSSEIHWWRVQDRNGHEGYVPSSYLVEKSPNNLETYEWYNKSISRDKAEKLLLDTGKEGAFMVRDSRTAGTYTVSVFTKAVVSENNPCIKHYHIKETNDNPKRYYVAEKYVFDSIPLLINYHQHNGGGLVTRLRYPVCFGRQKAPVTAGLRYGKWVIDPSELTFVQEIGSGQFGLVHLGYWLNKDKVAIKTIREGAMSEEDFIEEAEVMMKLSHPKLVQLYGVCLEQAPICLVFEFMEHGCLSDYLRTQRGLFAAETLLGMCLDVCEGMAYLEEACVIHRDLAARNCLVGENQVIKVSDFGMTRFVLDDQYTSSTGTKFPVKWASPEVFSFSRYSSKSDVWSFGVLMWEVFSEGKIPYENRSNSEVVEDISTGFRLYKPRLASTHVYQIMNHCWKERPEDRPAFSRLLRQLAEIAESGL

[6] = Lipophilicity, log D of the compound at pH 7.4; settings: buffer
[7] = Half life in rat at 5 mg/kg, po; type: ADME, organism-based; set-up: dose 5 mg/kg, route oral; settings: in vivo

Row | SMILES | AUC [1] | half-life [2] | clearance [3] | bioavailability [4] | Ki [5] | logD [6] | half-life [7]
1 | CN(C)CC[C@@H](c1ccccc1)n1cc(NC(=O)c2n[nH]c3cc(-c4cn[nH]c4)ccc23)cn1 | 0.837 µM·h | 5.7 h | 44 mL/min/kg | 0% | – | – | –
2 | O=C(Nc1ncc(Cc2ccccc2)o1)c1n[nH]c2ccccc12 | – | – | – | – | > 4 nM | – | –
3 | O=C(Nc1ncc(Cc2ccccc2)s1)c1n[nH]c2ccccc12 | – | – | – | – | > 4 nM | – | –
4 | CC(C)(O)[C@@H](c1ccccc1)n1cc(NC(=O)c2n[nH]c3cc(-c4cn[nH]c4)ccc23)cn1 | 2.5 µM·h | 1.8 h | 11 mL/min/kg | 9% | – | 3.4 | 2.6 h
